We go through 3 compounds from ChEMBL document CHEMBL1153935, “4,4'-Dihydroxy-trans-stilbene, a resveratrol analogue, exhibited enhanced antioxidant activity and cytotoxicity” (Bioorg Med Chem, 2009).

In general, IC50 refers to the concentration at which inhibition is half-maximal. Read a high IC50 as weaker potency.

Structures are written as SMILES. Calls of active or inactive are those of the source. No cut-off for these calls is given here.

Assay [1] has as its system HL-60. The assay is described as follows: Cytotoxicity against human HL60 cells after 48 hrs by MTT assay. To be noted: for IC50: HL-60, 48 h. Format: functional, cell-based. (Tetrazolium assays rely on reduction of a dye to a coloured formazan, in cell work by metabolically active cells.)
The subject of assay [2] is Erythrocyte. The assay is described as follows: Inhibition of Fe(2+)/ascorbate-induced lipid peroxidation in human erythrocyte ghosts assessed as inhibition of malondialdehyde formation per mg of protein at 3 uM after 30 mins. Format: functional.
In assay [3] the test system is Erythrocyte. The assay is described as follows: Inhibition of Fe(2+)/ascorbate-induced lipid peroxidation in human erythrocyte ghosts assessed as inhibition of malondialdehyde formation at 1 to 5 uM. It counts as functional, cell-based.
Assay [4] concerns HL-60. The assay is described as follows: Cytotoxicity against human HL60 cells at 20 uM after 48 hrs by MTT assay. Format: functional.
Assay [5] concerns Erythrocyte. The assay is described as follows: Inhibition of Fe(2+)/ascorbate-induced lipid peroxidation in human erythrocyte ghosts assessed as inhibition of malondialdehyde formation per mg of protein at 2 uM after 30 mins. Format: functional.
The test system of assay [6] is Erythrocyte. The assay is described as follows: Inhibition of Fe(2+)/ascorbate-induced lipid peroxidation in human erythrocyte ghosts assessed as inhibition of malondialdehyde formation per mg of protein at 1 uM after 30 mins. Format: functional.
The subject of assay [7] is Erythrocyte. The assay is described as follows: Inhibition of Fe(2+)/ascorbate-induced lipid peroxidation in human erythrocyte ghosts assessed as increase in inhibition period. It counts as functional, cell-based.
Assay [8] has as its system Erythrocyte. The assay is described as follows: Inhibition of Fe(2+)/ascorbate-induced lipid peroxidation in human erythrocyte ghosts assessed as inhibition of malondialdehyde formation at 5 uM. Format: functional, cell-based.
Assay [9] relates to HL-60. The assay is described as follows: Cytotoxicity against human HL60 cells at 10 uM after 48 hrs by MTT assay. Format: functional.
Assay [10] has as its system HL-60. The assay is described as follows: Cytotoxicity against human HL60 cells at 30 uM after 48 hrs by MTT assay. It counts as functional.

As for `COc1cc([C@@H]2c3cc4c(cc3[C@@H](O[C@@H]3O[C@@H]5CO[C@@H](C)O[C@H]5[C@H](O)[C@H]3O)[C@H]3COC(=O)[C@H]23)OCO4)cc(OC)c1O` [ETOPOSIDE], inhibition in the assay with HL-60 [1] was half-maximal at 3.3 µM (IC50).

For the compound `Oc1ccc(/C=C/c2cc(O)cc(O)c2)cc1` [RESVERATROL], the Activity in the assay with Erythrocyte [2] was 0.18 nmol; in the assay with HL-60 [1] it was “Dose-dependent effect”; with Erythrocyte [3], “Dose-dependent effect”; in the assay with HL-60 [4] it was 72%; with Erythrocyte [5], 0.61 nmol; in the assay with Erythrocyte [6], 1.33 nmol. Further, the results for the Activity entry with Erythrocyte [7], with HL-60 [9] and in the assay with HL-60 [10] were “Dose-dependent effect”, 83% and 43%, respectively. In the assay on HL-60 [1], this compound had an IC50 of 36.3 µM. In the assay on Erythrocyte [8], the outcome was Active.

For `Oc1ccc(/C=C/c2ccc(O)cc2)cc1` [TRANS-4,4'-DIHYDROXYSTILBENE], the Activity in the assay on Erythrocyte [2] worked out at 0.17 nmol; with Erythrocyte [5], 0.45 nmol; in the assay on Erythrocyte [6], 0.8 nmol. In addition, it took 6.5 µM to reach half-maximal inhibition with HL-60 [1] (IC50).
